Patent US7745641B2, “Nitrogen-containing heterocyclic compound” (Kyowa Hakko Kirin Co., Ltd., priority 2005, dated 2010)

How the values were obtained:
Aurora = Aurora inhibitory activity using Western blotting method (phosphorylation of histone H3 Ser10); format: cell-based, human; conditions: 10 μmol/L, 30 minutes, HCT116 cells accumulated in M phase with Nocodazole
From the text: It is known that Aurora phosphorylates Ser10 of histone H3 in the G2/M phase during the cell cycle [Molecular and Cellular Biology, Vol. 22, p. 874 (2002)]. Consequently, the inhibition of phosphorylation of histone H3 Ser10 in cells was detected by a Western blotting method using human colon cancer cell line HCT116 cells accumulated in the M phase. McCoy's 5A culture medium (GIBCO, Catalogue No. 16600-082) containing 10% bovine fetus serum (GIBCO, Catalogue No. 10099-141) was used for the cultivation of the cells. The HCT116 cells were inoculated and then treated with Nocodazole (Sigma Corporation, Catalogue No. M-1404) so that the cell cycle was accumulated to the M phase. A test compound (final concentration: 10 μmol/L) was added thereto, and the cells were incubated at 37° C. for 30 minutes. The cells were then recovered and washed with a phosphate buffered saline (PBS) once. The cells were suspended in a cell-solubilizing solution (50 mmol/L 2-[4-(2-hydroxyethyl)-1-piperazinyl]ethanesulfonic acid (HEPES) (pH 7.4), 150 mmol/L NaCl, 1 mmol/L ethylenediamine-N,N,N′,N′-tetraacetic acid disodium salt dihydrate (EDTA), 2.5 mmol/L ethylene glycol bis(2-aminoethylether)-N,N,N′,N′-tetraacetic acid (EGTA), 0.1% Tween-20 (Bio-Rad Laboratories Inc., Catalogue No. 170-6531), 10% β-glycerophosphate, 1 mmol/L NaF, 0.1 mmol/L Na3VO4, 1 mmol/L Pefabloc SC (Roche Diagnostics K.K., Catalogue No. 1 429 868), and Complete EDTA-free (Roche Diagnostics K.K., Catalogue No. 1 873 580)}, and the suspension was frozen and thawed. Subsequently, the supernatant obtained by centrifugal separation was used as a cell extraction solution. SDS-PAGE was performed using a 12.5% polyacrylamide gel under the condition that the amount of protein per sample was 30 μg in accordance with the method used by Laemmli et al. The protein was transferred onto a PVDF membrane (Millipore Corporation, Catalogue No. IPVH304F0) by a semi-dry method. The membrane was allowed to react with anti-phosphorylated histone H3 Ser10 antibody (Upstate Inc., Catalogue No. 06-570) used as a primary antibody, and an HRP-labeled anti-rabbit IgG antibody (Amersham biosciences, Catalogue No. NA934V) used as a secondary antibody. Subsequently, […] was detected using a SuperSignal West Pico chemiluminescence substrate (Pierce, Catalogue No. 34077).

HCT116 cells = assay: Evaluation of Aurora inhibitory activity by analysis of nuclear morphology (enlarged lobed nuclei); format: cell-based, human; conditions: concentration in the range of 0.1 to 1 μmol/L, 17 hours contact; optimal concentration different in each compound
Protocol: 281 (2003)]. Consequently, enlarged lobed nuclei-inducibility of test compounds for HCT116 cells was evaluated. McCoy's 5A culture medium (GIBCO, Catalogue No. 16600-082) containing 10% bovine fetus serum (GIBCO, Catalogue No. 10099-141) was used for the cultivation of the cells. HCT116 cells were inoculated and, 24 hours later, each test compound was added thereto.

melting point [°C] | Compound | suppression of the phosphorylation of histone H3 Ser10 in HCT116 cells (Aurora) | ability of inducing enlarged lobed nuclei for HCT116 cells (HCT116 cells)
– | Cl.O=C1NCc2c(Cl)ccc(-c3cc4cc(C(=O)N5CCNCC5)ccc4[nH]3)c21 [Compound 22] | almost completely suppressed | show ability of inducing enlarged lobed nuclei
> 295 | O=C1NCc2c(Cl)ccc(-c3cc4cc(C(=O)N5CCN(CCO)CC5)ccc4[nH]3)c21 [Compound 23, 4-Chloro-7-{1H-5-[4-(2-hydroxyethyl)piperazin-1-ylcarbonyl]indol-2-yl}isoindolinone] | – | –
– | Cl.Cl.O=C1NCc2c(Cl)ccc(-c3cc4cc(CN5CCN(CCO)CC5)ccc4[nH]3)c21 [Compound 24, 4-Chloro-7-{1H-5-[4-(2-hydroxyethyl)piperazin-1-ylmethyl]indol-2-yl}isoindolinone dihydrochloride] | almost completely suppressed | show ability of inducing enlarged lobed nuclei
– | Cl.O=C1NCc2c(Cl)ccc(-c3cc4cc(CN5CCCCC5)ccc4[nH]3)c21 [Compound 29, 4-Chloro-7-[1H-5-(piperidinomethyl)indol-2-yl]isoindolinone hydrochloride] | almost completely suppressed | show ability of inducing enlarged lobed nuclei
– | Cl.O=C1NCc2c(Cl)ccc(-c3cc4cc(CNCCO)ccc4[nH]3)c21 [Compound 32, 4-Chloro-7-{1H-5-[(2-hydroxyethyl)aminomethyl]indol-2-yl}isoindolinone hydrochloride] | almost completely suppressed | show ability of inducing enlarged lobed nuclei
246 | O=C(NCc1ccccc1)c1ccc2[nH]c(-c3ccc(Cl)c4c3C(=O)NC4)cc2c1 [Compound 57, 4-Chloro-7-[1H-5-(benzylaminocarbonyl)indol-2-yl]isoindolinone] | – | –
– | Cl.O=C1NCc2c(O)ccc(-c3cc4cc(CN5CCCCC5)ccc4[nH]3)c21 [Compound 139, 4-Hydroxy-7-[1H-5-(piperidinomethyl)indol-2-yl]isoindolinone hydrochloride] | almost completely suppressed | show ability of inducing enlarged lobed nuclei
– | Cl.O=C1NCc2c(-c3ccco3)ccc(-c3cc4cc(CN5CCCCC5)ccc4[nH]3)c21 [Compound 143, 4-(Furan-2-yl)-7-[1H-5-(piperidinomethyl)indol-2-yl]isoindolinone hydrochloride] | almost completely suppressed | show ability of inducing enlarged lobed nuclei
– | Cl.NS(=O)(=O)Oc1ccc(-c2cc3cc(CN4CCCCC4)ccc3[nH]2)c2c1CNC2=O [Compound 231, 4-Sulfamoyloxy-7-[1H-5-(piperidinomethyl)indol-2-yl]isoindolinone hydrochloride] | almost completely suppressed | show ability of inducing enlarged lobed nuclei
– | Cl.O=C1NCc2c(C#CCO)ccc(-c3cc4cc(CN5CCCCC5)ccc4[nH]3)c21 [Compound 321, 4-(3-Hydroxy-1-propinyl)-7-[1H-5-(piperidinomethyl)indol-2-yl]isoindolinone hydrochloride] | almost completely suppressed | show ability of inducing enlarged lobed nuclei
– | COc1cc(-c2cc3cc(CN(C)C)ccc3[nH]2)c2c(c1O)CNC2=O.Cl [Compound 357, 4-Hydroxy-5-methoxy-7-[1H-5-(dimethylaminomethyl)indol-2-yl]isoindolinone hydrochloride] | almost completely suppressed | show ability of inducing enlarged lobed nuclei
– | CNCc1ccc2[nH]c(-c3cc(OC)c(OS(C)(=O)=O)c4c3C(=O)NC4)cc2c1.Cl [Compound 375, 4-Methanesulfonyloxy-5-methoxy-7-[1H-5-(methylaminomethyl)indol-2-yl]isoindolinone hydrochloride] | almost completely suppressed | show ability of inducing enlarged lobed nuclei
– | CCN(CC)Cc1ccc2[nH]c(-c3cc(OC)c(OS(C)(=O)=O)c4c3C(=O)NC4)cc2c1.Cl [Compound 376, 4-Methanesulfonyloxy-5-methoxy-7-[1H-5-(diethylaminomethyl)indol-2-yl]isoindolinone hydrochloride] | almost completely suppressed | show ability of inducing enlarged lobed nuclei
– | COc1cc(-c2cc3cc(CN4CCCCC4)ccc3[nH]2)c2c(c1OS(=O)(=O)c1ccsc1)CNC2=O.Cl [Compound 407, 4-(3-Thiophenesulfonyloxy)-5-methoxy-7-[1H-5-(piperidinomethyl)indol-2-yl]isoindolinone hydrochloride] | almost completely suppressed | show ability of inducing enlarged lobed nuclei
– | COc1cc(-c2cc3cc(CN(C)C)ccc3[nH]2)c2c(c1OS(=O)(=O)c1ccccn1)CNC2=O.Cl [Compound 412, 4-(2-Pyridinesulfonyloxy)-5-methoxy-7-[1H-5-(dimethylaminomethyl)indol-2-yl]isoindolinone hydrochloride] | almost completely suppressed | show ability of inducing enlarged lobed nuclei
– | COc1cc(-c2cc3cc(CN4CCCC4)ccc3[nH]2)c2c(c1OS(=O)(=O)N(C)C)CNC2=O.Cl [Compound 417, 4-(Dimethylsulfamoyloxy)-5-methoxy-7-[1H-5-(pyrrolidin-1-ylmethyl)indol-2-yl]isoindolinone hydrochloride] | almost completely suppressed | show ability of inducing enlarged lobed nuclei
– | CN(C)Cc1ccc2[nH]c(-c3cc(OCCCO)c(Cl)c4c3C(=O)NC4)cc2c1.Cl [Compound 431, 4-Chloro-5-(3-hydroxypropoxy)-7-[1H-5-(dimethylaminomethyl)indol-2-yl]isoindolinone hydrochloride] | almost completely suppressed | show ability of inducing enlarged lobed nuclei
– | COCCCNCc1ccc2[nH]c(-c3cc(OC)c(OS(C)(=O)=O)c4c3C(=O)NC4)cc2c1.Cl [Compound 454, 4-Methanesulfonyloxy-5-methoxy-7-[1H-5-(3-methoxypropylaminomethyl)indol-2-yl]isoindolinone hydrochloride] | almost completely suppressed | show ability of inducing enlarged lobed nuclei
– | COc1cc(-c2cc3cc(N4CCN(C)CC4)ccc3[nH]2)c2c(c1OS(C)(=O)=O)CNC2=O.Cl.Cl [Compound 457, 4-Methanesulfonyloxy-5-methoxy-7-[1H-5-(4-methylpyperazin-1-yl)indol-2-yl]isoindolinone dihydrochloride] | almost completely suppressed | show ability of inducing enlarged lobed nuclei
